Publication PMC12429696, “The Neurotropic Activity of Novel Dermorphin Analogs Active in Systemic and Noninvasive Administration” (International Journal of Molecular Sciences, 2025)
“Also recorded” adds a separate entry of the source. Square brackets hold non-standard residues; d marks the D form. Ends that are not written are not given here.

How the values were obtained:
[1] = system: isolated preparations of guinea pig ileal smooth muscle; assay: Opioid activity on electrically stimulated isolated guinea pig ileum (GPI); assay type: cell-based; conditions: inhibition of electrically stimulated contractions of GPI segment, Krebs solution 34 °C, 10^−9 to 10^−6 M, tests in duplicate
From the text: Dermorphin analogs have been tested using the standard guinea pig ileum (GPI) model, The GPI is rich in µ-opioid receptors. Ten peptides were suppressed via electrical stimulation contractions of segment GPI in the studied concentration range (10^−9 to 10^−6 M) (Table 1).
The opioid receptor antagonist naloxone (10^−6 M) prevented or weakened the action of the compounds under investigation, confirming the opioid mechanism of their action. […] Thus, new dermorphin analogs can be agonists of µ-type opioid receptors. However, this needs to be verified using molecular modeling methods in further research. Attila M. et al. (1993) investigated the potential binding of 16 dermorphin analogs to µ and δ opioid receptors in brain cells.
The peripheral opioid activity of the peptides was assessed according to known methodology. A segment of guinea pig ileum (approximately 1 cm long) was placed into a 10 mL organ bath containing Krebs solution at 34 °C. Single pulses stimulated the segment of the ileum (1 g) with a duration of 1 ms and a frequency of 0.1 Hz at 80 V. Contractions were recorded in isometric mode using a K30 sensor (Hugo Sachs Elektronic KG, March, Germany).
All tests for each molecule were performed in duplicate. Based on the data obtained, dose-effect curves were plotted, and the IC50 index was determined as the concentration of the substance that causes 50% of the maximal inhibitory effect.

[2] = system: mice; assay: Tail-flick test (radiant heat) in mice; assay type: in vivo; conditions: 50 mg/kg; for analgesic action in tail-flick test: 30 and 60 min after administration
From the text: (§1) Two tests, “tail-flick” and “hot plate,” were used to evaluate the analgesic action of peptides administered intraperitoneally and intra-gastrically.
The pain stimulus was applied locally to the tail as radiant heat using a Tail Flick Analgesia Meter (Hugo Sachs Elektronik, Germany). A tail-flick latent period of 6 s was considered the maximum time for applying the stimulus (Equation (1): tmax—6 s, maximal duration of pain stimulus).
(§2) The control groups consisted of mice injected with solvent. The tested substances were administered to the animals intraperitoneally and intragastrically in a volume of 0.1 mL of saline per 10 g of body weight. The pain response threshold was measured before and 30 and 60 min after administration.
(§3) In both tests, the final indicator of analgesic action was defined as a 50% or more significant effect on the number of animals in each experimental group, expressed as a percentage of the total number of animals in that group. […]

[3] = system: mice; assay: Hot plate test in mice; assay type: in vivo; conditions: 50 mg/kg, 30 and 60 min after administration
Protocol: as §1, §2
The “hot plate” test evaluates the pain reaction to thermal irritation of the mouse paw. The Hot Plate Model 7280 (Ugo Basile S.R.L., Gemonio, Italy) analgesimeter was used for this test. The maximal duration of the pain stimulus (thermal irritation) was set at 60 s.
as §3

[4] = system: rats; assay: Open field test in rats with intranasal administration; assay type: in vivo, Wistar rats; conditions: n = 7, open field 2 min
Protocol: The experiments were conducted in an automated “open-field” chamber that registered and processed computer data. They were conducted in two replicates on 64 male Wistar rats weighing 240–260 g. The “open-field” is a round arena with a diameter of 80 cm, lined with three concentric circles and eight diameters. During the experiment, the rat was placed in the center of the arena. Motor activity (measured as the number of segments passed), the number of departures from the arena wall, vertical activity (the number of rises on the hind legs), and the number of touches of the muzzle with the paws (washing) were visually assessed for two minutes. A 500-watt household electric bell and a 15-watt red lamp were placed 80 cm above the arena. The study was conducted in silence and under the light of the red lamp.
Animals were divided into groups: untrained intact animals and trained experimental animals. All animals were divided into five groups: • In the intact group, animals without training were injected with 0.05 mL of physiological solution one minute before being placed in the “open field.” (n = 33). • The control group consisted of animals adapted after a 5-day administration of 0.5 mL of saline (n = 10). • Single drug action at a 15 μg/kg dose was administered to adapted animals (n = 7). • Adapted animals (n = 7) received a 50 μg/kg dose of a single drug action. • Single drug action at a 150 μg/kg dose was administered to adapted animals (n = 7).

[5] = system: rats; assay: Water immersion tail-flick test in rats; assay type: in vivo, Wistar rats; conditions: for duration of analgesic effect: intraperitoneal, 5 mg/kg, water tail-flick 56 °C
[6] = system: δ-opioid receptors; design: method as in PMID 3033543; conditions: rat brain; cited from earlier work
[7] = system: κ receptors; design: method as in PMID 3033543; conditions: rat brain; cited from earlier work
[8] = system: µ-opioid receptors; design: method as in PMID 3033543; conditions: cited from earlier work
[9] = intracerebroventricular, 1.0 μg/kg

Compound: H-Y[dA]F[dA]-OH (SMILES C[C@@H](NC(=O)[C@H](Cc1ccccc1)NC(=O)[C@@H](C)NC(=O)[C@@H](N)Cc1ccc(O)cc1)C(=O)O) [D10, reference compound]
- Index IC50 [1]: 1000 nM

Compound: H-Y[dA]F[dA]YPS-OH (SMILES C[C@@H](NC(=O)[C@H](Cc1ccccc1)NC(=O)[C@@H](C)NC(=O)[C@@H](N)Cc1ccc(O)cc1)C(=O)N[C@@H](Cc1ccc(O)cc1)C(=O)N1CCC[C@H]1C(=O)N[C@@H](CO)C(=O)O) [D5]
- Index IC50 [1]: 760 nM

Compound: Cyclo-[L-Lys(H-Tyr-D-Ala-Phe-D-Ala)-L-Glu-(L-TrpOMe)] (head to tail) [D7]
- Index IC50 [1]: 2000 nM

Compound: H-RY[dA]F[dA]-OH (SMILES C[C@@H](NC(=O)[C@H](Cc1ccccc1)NC(=O)[C@@H](C)NC(=O)[C@H](Cc1ccc(O)cc1)NC(=O)[C@@H](N)CCCNC(=N)N)C(=O)O) [D9]
- Index IC50 [1]: 1000 nM

Compound: Cyclo-[L-Lys(H-Tyr-D-Ala-Phe-D-Ala-Tyr-Pro-Ser)-L-Glu(L-Trp-NH2)] (head to tail) [D3]
- analgesic action in tail-flick test ([2]; intragastric): active after 30 and 60 min
- duration of activity in tail-flick test ([2]; intraperitoneal): 60 min
- analgesic action in tail-flick test ([2]; intraperitoneal): high analgesic activity
- analgesic action in hot plate test ([3]; intragastric): no significant analgesic effect
- analgesic action in hot plate test ([3]; intraperitoneal): highest activity for 60 min; also recorded: active as tramadol
- Index IC50 [1]: 33 nM

Compound: Cyclo-[L-Lys(H-Tyr-D-Ala-Phe-D-Ala)-L-Glu(OH)] (head to tail) [D6]
- Index IC50 [1]: 570 nM

Compound: COc1cccc(C2(O)CCCCC2CN(C)C)c1 (stereo not shown) [tramadol, reference compound]
- analgesic action in tail-flick test ([2]; intragastric): active
- analgesic action in hot plate test ([3]; intragastric): no significant analgesic effect

Compound: H-Y[dA]F[dA]YPS-NHMe (SMILES CNC(=O)[C@H](CO)NC(=O)[C@@H]1CCCN1C(=O)[C@H](Cc1ccc(O)cc1)NC(=O)[C@@H](C)NC(=O)[C@H](Cc1ccccc1)NC(=O)[C@@H](C)NC(=O)[C@@H](N)Cc1ccc(O)cc1) [D2]
- Defecation ([4]; 15 µg/kg): 0.92 ± 0.26
- Dive ([4]; 15 µg/kg): 6.17 ± 1.63
- Grooming ([4]; 15 µg/kg): 1.58 ± 0.42
- Path ([4]; 15 µg/kg): 23.83 ± 7.16
- Stand ([4]; 15 µg/kg): 8.83 ± 3.03
- Urination ([4]; 15 µg/kg): 0.25 ± 0.13
- Defecation ([4]; 50 µg/kg): 1.10 ± 0.18
- Dive ([4]; 50 µg/kg): 3.40 ± 0.76
- Grooming ([4]; 50 µg/kg): 0.90 ± 0.46
- Path ([4]; 50 µg/kg): 21.80 ± 6.16
- Stand ([4]; 50 µg/kg): 4.50 ± 1.35
- Urination ([4]; 50 µg/kg): 0.20 ± 0.13
- Defecation ([4]; 150 µg/kg): 0.60 ± 0.22
- Dive ([4]; 150 µg/kg): 2.90 ± 0.99
- Grooming ([4]; 150 µg/kg): 1.00 ± 0.39
- Path ([4]; 150 µg/kg): 14.80 ± 3.80
- Stand ([4]; 150 µg/kg): 4.70 ± 1.45
- Urination ([4]; 150 µg/kg): 0.10 ± 0.10
- analgesic action in tail-flick test ([2]; intragastric): active in the “tail-flick” test only 30 min after administration
- analgesic action in hot plate test ([3]; intragastric): no significant analgesic effect
- analgesic action in hot plate test ([3]; intraperitoneal): significant activity only at 30 min; also recorded: active only for 30 min
- analgesic effect [5, 9]: potent analgesia
- observed side effects [5, 9]: severe muscle tension, and numbness
- observed side effects ([5]; intracerebroventricular, 2.5 μg/kg): complete immobility and catatonic effects
- analgesic effect (A) ([5]; intracerebroventricular, 2.5 μg/kg, n = 7): 100%
- observed side effects ([5]; intranasal, 0.5 µg/kg): short-term state of stupor
- analgesic effect ([5]; intranasal, 1.0 µg/kg): maximum long-lasting analgesia
- observed side effects ([5]; intranasal, 1.0 µg/kg): complete stupor
- duration of analgesic effect [5]: up to 5 h
- Index IC50 [1]: 9.5 nM

Compound: H-Tyr-D-Ala-Phe-Gly-Tyr-Pro-Ser-NH2 [D1, reference compound]
- affinity for δ-opioid receptors [6]: low affinity
- analgesic action in tail-flick test ([2]; intragastric): did not exhibit analgesic action
- duration of activity in tail-flick test ([2]; intraperitoneal): 60 min
- affinity for κ receptors [7]: low affinity
- affinity for µ-opioid receptors [8]: very high affinity
- analgesic action in hot plate test ([3]; intragastric): did not exhibit analgesic action
- analgesic action in hot plate test ([3]; intraperitoneal): active as tramadol
- duration of analgesic effect [5]: approximately 1 h
- Index IC50 [1]: 2.5 nM

Compound: RY[dA]FG-OH (N-terminus assumed; SMILES C[C@@H](NC(=O)[C@H](Cc1ccc(O)cc1)NC(=O)[C@@H](N)CCCNC(=N)N)C(=O)N[C@@H](Cc1ccccc1)C(=O)NCC(=O)O) [D8]
- Index IC50 [1]: 3000 nM

Compound: Cyclo-[L-Lys(H-Tyr-D-Ala-Phe-D-Ala-Tyr-Pro-Ser)-L-Glu(L-Trp-OH)] (head to tail) [D4]
- analgesic action in tail-flick test ([2]; intragastric): active after 30 and 60 min
- analgesic action in tail-flick test ([2]; intraperitoneal): high analgesic activity
- analgesic action in hot plate test ([3]; intragastric): no significant analgesic effect
- analgesic action in hot plate test ([3]; intraperitoneal): moderately active; also recorded: active as tramadol
- Index IC50 [1]: 11 nM
